Results as given in ChEMBL document CHEMBL3286384, “Synthesis, cytotoxicity, antimicrobial and anti-biofilm activities of novel pyrazolo[3,4-b]pyridine and pyrimidine functionalized 1,2,3-triazole derivatives” (Bioorg Med Chem Lett, 2014).
pIC50: −log10 of the molar value. In brackets after ≈: the same amount, converted by molar mass. Activity calls are given as the source filed them. No cut-off for these calls is given here.

How the values were obtained:
A549 = experiment: Cytotoxicity against human A549 cells after 24 hrs by MTT assay; assay type: functional, cell-based; conditions: A549, 24 h
MCF7 = experiment: Cytotoxicity against human MCF7 cells after 24 hrs by MTT assay; assay type: functional, cell-based; conditions: MCF7, 24 h
DU-145 = experiment: Cytotoxicity against human DU145 cells after 24 hrs by MTT assay; assay type: functional, cell-based; conditions: DU-145, 24 h
HeLa = experiment: Cytotoxicity against human HeLa cells after 24 hrs by MTT assay; assay type: functional, cell-based
Micrococcus luteus [1] = experiment: Antimicrobial activity against Micrococcus luteus MTCC 2470 after 24 hrs by well diffusion method; assay type: functional
Staphylococcus aureus [2] = experiment: Antimicrobial activity against Staphylococcus aureus MTCC 96 after 24 hrs by well diffusion method; assay type: functional
Staphylococcus aureus [3] = experiment: Antimicrobial activity against Staphylococcus aureus MLS-16 MTCC 2940 after 24 hrs by well diffusion method; assay type: functional
Bacillus subtilis [4] = experiment: Antimicrobial activity against Bacillus subtilis MTCC 121 after 24 hrs by well diffusion method; assay type: functional
Escherichia coli [5] = experiment: Antimicrobial activity against Escherichia coli MTCC 739 after 24 hrs by well diffusion method; assay type: functional
Pseudomonas aeruginosa [6] = experiment: Antimicrobial activity against Pseudomonas aeruginosa MTCC 2453 after 24 hrs by well diffusion method; assay type: functional
Raoultella planticola [7] = experiment: Antimicrobial activity against Klebsiella planticola MTCC 530 after 24 hrs by well diffusion method; assay type: functional
Micrococcus luteus [8] = experiment: Antimicrobial activity against Micrococcus luteus MTCC 2470 assessed as inhibition of biofilm formation after 24 hrs by crystal violet staining-based assay; assay type: functional, organism-based; conditions: MTCC 2470, 24 h
Staphylococcus aureus [9] = experiment: Antimicrobial activity against Staphylococcus aureus MTCC 96 assessed as inhibition of biofilm formation after 24 hrs by crystal violet staining-based assay; assay type: functional, organism-based; conditions: MTCC 96, 24 h
Staphylococcus aureus [10] = experiment: Antimicrobial activity against Staphylococcus aureus MLS-16 MTCC 2940 assessed as inhibition of biofilm formation after 24 hrs by crystal violet staining-based assay; assay type: functional, organism-based; conditions: MLS-16 MTCC 2940, 24 h
Raoultella planticola [11] = experiment: Antimicrobial activity against Klebsiella planticola MTCC 530 assessed as inhibition of biofilm formation after 24 hrs by crystal violet staining-based assay; assay type: functional, organism-based; conditions: MTCC 530, 24 h
Pseudomonas aeruginosa [12] = experiment: Antimicrobial activity against Pseudomonas aeruginosa MTCC 2453 assessed as inhibition of biofilm formation after 24 hrs by crystal violet staining-based assay; assay type: functional, organism-based; conditions: MTCC 2453, 24 h
Micrococcus luteus [13] = experiment: Bactericidal activity against Micrococcus luteus MTCC 2470 after 24 hrs by agar plating method; assay type: functional; conditions: MTCC 2470, 24 h
Staphylococcus aureus [14] = experiment: Bactericidal activity against Staphylococcus aureus MTCC 96 after 24 hrs by agar plating method; assay type: functional; conditions: MTCC 96, 24 h
Staphylococcus aureus [15] = experiment: Bactericidal activity against Staphylococcus aureus MLS-16 MTCC 2940 after 24 hrs by agar plating method; assay type: functional; conditions: MLS-16 MTCC 2940, 24 h
Bacillus subtilis [16] = experiment: Bactericidal activity against Bacillus subtilis MTCC 121 after 24 hrs by agar plating method; assay type: functional; conditions: MTCC 121, 24 h
Escherichia coli [17] = experiment: Bactericidal activity against Escherichia coli MTCC 739 after 24 hrs by agar plating method; assay type: functional; conditions: MTCC 739, 24 h
Pseudomonas aeruginosa [18] = experiment: Bactericidal activity against Pseudomonas aeruginosa MTCC 2453 after 24 hrs by agar plating method; assay type: functional; conditions: MTCC 2453, 24 h
Raoultella planticola [19] = experiment: Bactericidal activity against Klebsiella planticola MTCC 530 after 24 hrs by agar plating method; assay type: functional; conditions: MTCC 530, 24 h
Candida albicans [20] = conditions: MTCC 3017
Description: (§1) Antimicrobial activity against Candida albicans MTCC 3017 after 24 hrs by well diffusion method

Candida albicans [21] = experiment: microbe, parasite or virus in culture; conditions: MTCC 3017, 24 h
Description: as §1

Row | SMILES | pIC50 (A549) | pIC50 (MCF7) | pIC50 (DU-145) | pIC50 (HeLa) | MIC (Micrococcus luteus [1]; MTCC 2470, 24 h) [µg/mL] | MIC (Staphylococcus aureus [2]; MTCC 96, 24 h) [µg/mL] | MIC (Staphylococcus aureus [3]; MLS-16 MTCC 2940, 24 h) [µg/mL] | MIC (Bacillus subtilis [4]; MTCC 121, 24 h) [µg/mL] | MIC (Escherichia coli [5]; MTCC 739, 24 h) [µg/mL] | MIC (Pseudomonas aeruginosa [6]; MTCC 2453, 24 h) [µg/mL] | MIC (Raoultella planticola [7]; MTCC 530, 24 h) [µg/mL] | MIC (Candida albicans [20]) | other results
1 | CCOC(=O)Cn1nc(-n2cc(Cn3c(N)nc(C(F)(F)F)cc3=O)nn2)c2ccc(C(F)(F)F)nc21 | 4.79 | 4.91 | 4.74 | 4.94 |  |  |  |  |  |  |  |  | 
2 | Nc1nc(OCc2cn(-c3n[nH]c4nc(C(F)(F)F)ccc34)nn2)cc(C(F)(F)F)n1 | 4.64 | < 4.00 | 4.54 | < 4.00 | 7.8 (≈ 17.5 µM) | 15.6 (≈ 35 µM) | 15.6 (≈ 35 µM) | 15.6 (≈ 35 µM) | 7.8 (≈ 17.5 µM) | 7.8 (≈ 17.5 µM) | 15.6 (≈ 35 µM) | inactive | IC50 (Micrococcus luteus [8]): 7.8 µg/mL (≈ 17.5 µM); IC50 (Staphylococcus aureus [9]): 7.8 µg/mL (≈ 17.5 µM); IC50 (Staphylococcus aureus [10]): 7.8 µg/mL (≈ 17.5 µM); IC50 (Raoultella planticola [11]): 7.8 µg/mL (≈ 17.5 µM); IC50 (Pseudomonas aeruginosa [12]): 3.9 µg/mL (≈ 8.76 µM); MBC (Micrococcus luteus [13]): 15.6 µg/mL (≈ 35 µM); MBC (Staphylococcus aureus [14]): 31.2 µg/mL (≈ 70.1 µM); MBC (Staphylococcus aureus [15]): 31.2 µg/mL (≈ 70.1 µM); MBC (Bacillus subtilis [16]): 31.2 µg/mL (≈ 70.1 µM); MBC (Escherichia coli [17]): 7.8 µg/mL (≈ 17.5 µM); MBC (Pseudomonas aeruginosa [18]): 15.6 µg/mL (≈ 35 µM); MBC (Raoultella planticola [19]): 31.2 µg/mL (≈ 70.1 µM)
3 | CCCCCCCCn1nc(-n2cc(Cn3c(N)nc(C(F)(F)F)cc3=O)nn2)c2ccc(C(F)(F)F)nc21 | 5.00 | 4.95 | 4.91 | 5.03 |  |  |  |  |  |  |  |  | 
4 | C#CCn1nc(-n2cc(Cn3c(N)nc(C(F)(F)F)cc3=O)nn2)c2ccc(C(F)(F)F)nc21 | 4.67 | 4.91 | 4.63 | 4.99 |  |  |  |  |  |  |  |  | 
5 | CCOC(=O)Cn1nc(-n2cc(COc3cc(C(F)(F)F)nc(N)n3)nn2)c2ccc(C(F)(F)F)nc21 | 4.79 | 4.91 | 4.74 | 5.01 | > 250 | 15.6 (≈ 29.4 µM) | 7.8 (≈ 14.7 µM) | 15.6 (≈ 29.4 µM) | 15.6 (≈ 29.4 µM) | 15.6 (≈ 29.4 µM) | 7.8 (≈ 14.7 µM) | inactive | IC50 (Micrococcus luteus [8]): 7.8 µg/mL (≈ 14.7 µM); IC50 (Staphylococcus aureus [9]): 3.9 µg/mL (≈ 7.34 µM); IC50 (Staphylococcus aureus [10]): 7.8 µg/mL (≈ 14.7 µM); IC50 (Raoultella planticola [11]): 3.9 µg/mL (≈ 7.34 µM); IC50 (Pseudomonas aeruginosa [12]): 15.6 µg/mL (≈ 29.4 µM); MBC (Micrococcus luteus [13]): 15.6 µg/mL (≈ 29.4 µM); MBC (Staphylococcus aureus [14]): 15.6 µg/mL (≈ 29.4 µM); MBC (Staphylococcus aureus [15]): 15.6 µg/mL (≈ 29.4 µM); MBC (Bacillus subtilis [16]): 15.6 µg/mL (≈ 29.4 µM); MBC (Escherichia coli [17]): 31.2 µg/mL (≈ 58.7 µM); MBC (Pseudomonas aeruginosa [18]): 15.6 µg/mL (≈ 29.4 µM); MBC (Raoultella planticola [19]): 15.6 µg/mL (≈ 29.4 µM)
6 | Clc1ccc(COC(Cn2ccnc2)c2ccc(Cl)cc2Cl)c(Cl)c1 (centres undefined) [MICONAZOLE] |  |  |  |  |  |  |  |  |  |  |  |  | MIC (Micrococcus luteus [1]): inactive; MIC (Staphylococcus aureus [2]): inactive; MIC (Staphylococcus aureus [3]): inactive; MIC (Bacillus subtilis [4]): inactive; MIC (Escherichia coli [5]): inactive; MIC (Pseudomonas aeruginosa [6]): inactive; MIC (Raoultella planticola [7]): inactive; MIC (Candida albicans [21]): 7.8 µg/mL (≈ 18.7 µM)
7 | CCn1nc(-n2cc(Cn3c(N)nc(C(F)(F)F)cc3=O)nn2)c2ccc(C(F)(F)F)nc21 | < 4.00 | 4.02 | < 4.00 | 4.21 |  |  |  |  |  |  |  |  | 
8 | Nc1nc(C(F)(F)F)cc(=O)n1Cc1cn(-c2n[nH]c3nc(C(F)(F)F)ccc23)nn1 | 5.02 | 4.84 | 4.98 | 4.79 |  |  |  |  |  |  |  |  | 
9 | CCn1nc(-n2cc(COc3cc(C(F)(F)F)nc(N)n3)nn2)c2ccc(C(F)(F)F)nc21 | 4.60 | < 4.00 | 4.56 | < 4.00 | > 250 | > 250 | > 250 | > 250 | > 250 | > 250 | > 250 | inactive | 
10 | Nc1nc(OCc2cn(-c3nn(CCC(F)(F)C(F)(F)C(F)(F)C(F)(F)C(F)(F)C(F)(F)C(F)(F)C(F)(F)F)c4nc(C(F)(F)F)ccc34)nn2)cc(C(F)(F)F)n1 | 4.47 | < 4.00 | 4.42 | < 4.00 | > 250 | > 250 | > 250 | > 250 | > 250 | > 250 | > 250 | inactive | 
11 | O=c1[nH]cc(F)c(=O)[nH]1 [FLUOROURACIL] | 5.89 | 5.85 | 5.82 | 5.89 |  |  |  |  |  |  |  |  | 
